{"source": "BindingDB's records for doi:10.1016/j.bmcl.2013.07.018", "about": "(Chungnam National University, 2013)"}
{"experiment": "Inhibition of Fas-mediated cell death in oxygen and glucose deprived rat H9c2 cells treated 30 mins before oxygen and glucose deprivation measured after 6 hrs by DAPI staining", "units": {"EC50": "nM"}}
{"smiles": "COC(=O)c1nn(CCc2ccccc2)cc1NC(=O)COc1ccc(Br)cc1", "EC50": 355}
{"smiles": "COC(=O)c1nn(CCc2ccccc2)cc1NC(=O)CCc1ccccc1", "EC50": 427}
{"smiles": "COC(=O)c1sc2ccccc2c1NC(=O)CCSc1ccc(Br)cc1", "EC50": 724}
{"smiles": "O=C(CSc1ccc(Br)cc1)Nc1c(C(=O)O)oc2ccccc12", "EC50": 724}
{"smiles": "COC(=O)c1cc(Br)cc(Br)c1NC(=O)CCSc1ccccn1", "EC50": 933}
{"smiles": "O=C(CSc1ccc(Br)cc1)Nc1c(Br)cc(Br)cc1C(=O)O", "EC50": 1230}
{"smiles": "COC(=O)c1ccsc1NC(=O)CCSc1ccc(Br)cc1", "EC50": 589}
{"smiles": "COC(=O)c1ccsc1NC(=O)CSc1ccc(Br)cc1", "EC50": 759}
{"smiles": "COC(=O)c1ccsc1NC(=O)CSc1ccccc1", "EC50": 724}
{"smiles": "COC(=O)c1sccc1NC(=O)CN(C)c1ccccc1", "EC50": 661}
{"smiles": "CN(C)C(=O)c1sccc1NC(=O)CSc1ccc(Br)cc1", "EC50": 851}
{"smiles": "COC(=O)c1sccc1NC(=O)CSc1ccccc1", "EC50": 794}
{"smiles": "O=C(CCSc1ccccn1)Nc1cc(Cl)ccc1C1=NCCO1", "EC50": 1740}
{"smiles": "O=C(CSc1ccc(Br)cc1)Nc1ccccc1C(=O)O", "EC50": 2240}
{"smiles": "COC(=O)c1sccc1NC(=O)CCSc1ccc(Br)cc1", "EC50": 1290}
{"smiles": "COC(=O)c1c(NC(=O)CSc2cccc(OC)c2)cnn1CCc1ccccc1", "EC50": 437}
{"smiles": "COC(=O)c1sccc1NC(=O)CSc1ccc(Br)cc1", "EC50": 427}
{"smiles": "COC(=O)c1sccc1NC(=O)COc1ccc(Br)cc1", "EC50": 891}
{"smiles": "COC(=O)c1sccc1NC(=O)CSc1ccc(OC)cc1", "EC50": 871}
{"smiles": "COC(=O)c1sc2ccccc2c1NC(=O)CSc1ccccc1", "EC50": 692}
{"smiles": "COc1cc(C(=O)O)c(NC(=O)CCSc2ccccn2)c(OC)c1OC", "EC50": 2090}
{"smiles": "COC(=O)c1cc(OC)c(OC)c(OC)c1NC(=O)CCSc1ccccn1", "EC50": 1070}
{"smiles": "COC(=O)c1cc(OC)c(OC)cc1NC(=O)CCSc1ccccn1", "EC50": 1320}
{"smiles": "COC(=O)c1ccc(Cl)cc1NC(=O)CCSc1ccccn1", "EC50": 1020}
{"smiles": "COC(=O)c1cc(Br)cc(Br)c1NC(=O)C(Sc1ccc(Br)cc1)c1ccccc1", "note": "(stereo not drawn)", "EC50": 1580}
{"smiles": "O=C(O)c1cc(Cl)ccc1NC(=O)C(Sc1ccc(Br)cc1)c1ccccc1", "note": "(stereo not drawn)", "EC50": 2000}
{"smiles": "COc1cc(NC(=O)CSc2ccc(Br)cc2)c(C2=NCCO2)cc1OC", "EC50": 955}
{"smiles": "COC(=O)c1ccc(Cl)cc1NC(=O)CSc1ccc(Br)cc1", "EC50": 955}
{"smiles": "COC(=O)c1ccccc1NC(=O)CSc1ccccc1", "EC50": 562}
{"smiles": "COC(=O)c1sccc1NC(=O)CCSc1ccccc1", "EC50": 501}
{"smiles": "COC(=O)c1c(NC(=O)CSc2ccccc2N)cnn1CCc1ccccc1", "EC50": 513}
{"smiles": "COC(=O)c1c(NC(=O)CSc2ccc(Br)cc2)cnn1CCc1ccccc1", "EC50": 513}
{"smiles": "COC(=O)c1c(NC(=O)CSc2ccc([N+](=O)[O-])cc2)cnn1CCc1ccccc1", "EC50": 457}
{"smiles": "Cc1csc(C(=O)O)c1NC(=O)CSc1ccc(Br)cc1", "EC50": 1120}
{"smiles": "COC(=O)c1sccc1NC(=O)CSc1cccc(OC)c1", "EC50": 575}
{"smiles": "COC(=O)c1sc2ncccc2c1NC(=O)CCSc1ccccn1", "EC50": 490}
{"smiles": "COC(=O)c1oc2cccc(Cl)c2c1NC(=O)CSc1ccc(Br)cc1", "EC50": 1150}
{"smiles": "COC(=O)c1oc2ccccc2c1NC(=O)CSc1ccc(Br)cc1", "EC50": 661}
{"smiles": "COC(=O)c1oc2cccc(Cl)c2c1NC(=O)CCSc1ccccn1", "EC50": 631}
{"smiles": "COC(=O)c1oc2cccc(Cl)c2c1NC(=O)CSc1ccccn1", "EC50": 646}
{"smiles": "COC(=O)c1oc2ccccc2c1NC(=O)COc1ccc(Br)cc1", "EC50": 1050}
{"smiles": "COC(=O)c1oc2ccccc2c1NC(=O)CSc1ccc([N+](=O)[O-])cc1", "EC50": 575}
{"smiles": "COC(=O)c1ccccc1NC(=O)CSc1ccccn1", "note": "[2-[[1-oxo-2-(2-pyridinylthio)ethyl]amino]benzoic acid methyl ester]", "EC50": 692}
